{"source": "patent US20020026053A1", "about": "“Novel 3-(substituted) -2- indolinones compounds and use thereof as inhibitors of protein kinase activity” (priority 1997, published 2002)", "key": {"FLK-1 receptor": {"test_system": "FLK-1 receptor", "experiment": "FLK-1 Assay (cellular/catalytic ELISA, VEGF-stimulated phosphotyrosine)", "type": "cell-based", "design": "concentration or dose not given beside the values", "conditions": "protocol P.110", "description": "(§1) The cellular/catalytic assays described herein are performed in an ELISA format. The general procedure is as follows: a compound is introduced to cells expressing the test kinase, either naturally or recombinantly, for a selected period of time after which, if the test kinase is a receptor, a ligand known to activate the receptor is added. The cells are lysed and the lysate is transferred to the wells of an ELISA plate previously coated with a specific antibody recognizing the substrate of the enzymatic phosphorylation reaction. Non-substrate components of the cell lysate are washed away and the amount of phosphorylation on the substrate is detected with an antibody specifically recognizing phosphotyrosine compared with control cells that were not contacted with a test compound.\nAn ELISA assay is conducted to measure the kinase activity of the FLK-1 receptor and more specifically, the inhibition or activation of TK activity on the FLK-1 receptor. Specifically, the following assay can be conducted to measure kinase activity of the FLK-1 receptor in cells genetically engineered to express Flk-1.\na. Corning 96-well ELISA plates (Corning Catalog No. 25805-96);\nb. Cappel goat anti-rabbit IgG (catalog no. 55641);\nc. PBS (Gibco Catalog No. 450-1300EB);\nd. TBSW Buffer (50 mM Tris (pH 7.2), 150 mM NaCl and 0.1% Tween-20);\ne. Ethanolamine stock (10% ethanolamine (pH 7.0), stored at 4° C.);\nf. HNTG buffer (20 mM HEPES buffer (pH 7.5), 150 mM NaCl, 0.2% Triton X-100, and 10% glycerol);\ng. EDTA (0.5 M (pH 7.0) as a 100× stock);\nh. Sodium orthovanadate (0.5 M as a 100× stock);\ni. Sodium pyrophosphate (0.2 M as a 100× stock);\nj. NUNC 96 well V bottom polypropylene plates (Applied Scientific Catalog No. AS-72092);\nk. NIH3T3 C7#3 Cells (FLK-1 expressing cells);\nl. DMEM with 1× high glucose L-Glutamine (catalog No. 11965-050);\nn. L-glutamine, Gibco (catalog no. 25030-016);\no. VEGF, PeproTech, Inc. (catalog no. 100-20)(kept as 1 μg/100 μl stock in Milli-Q dH2O and stored at −20° C.;\np. Affinity purified anti-FLK-1 antiserum;\nq. UB40 monoclonal antibody specific for phosphotyrosine (see, Fendley, et al., 1990, Cancer Research 50:1550-1558);\nr. EIA grade Goat anti-mouse IgG-POD (BioRad catalog no. 172-1011);\ns. 2,2-azino-bis(3-ethylbenz-thiazoline-6-sulfonic acid (ABTS) solution (100 mM citric acid (anhydrous), 250 mM Na2HPO4 (pH 4.0), 0.5 mg/ml ABTS (Sigma catalog no. A-1888)), solution should be stored in dark at 4° C. until ready for use;\nt. H2O2 (30% solution) (Fisher catalog no. H325);\nu. ABTS/ H2O2 (15 ml ABTS solution, 2 μl H2O2) prepared 5 minutes before use and left at room temperature;\nv. 0.2 M HCl stock in H2O;\nw. dimethylsulfoxide (100%) (Sigma Catalog No. D-8418); and\ny. Trypsin-EDTA (Gibco BRL Catalog No. 25200-049).\n1. Coat Corning 96-well ELISA plates with 1.0 μg per well Cappel Anti-rabbit IgG antibody in 0.1M Na2CO3 pH 9.6. Bring final volume to 150 μl per well. Coat plates overnight at 4° C. Plates can be kept up to two weeks when stored at 4° C.\n2. Grow cells in Growth media (DMEM, supplemented with 2.0 mM L-Glutamine, 10% FBS) in suitable culture dishes until confluent at 37° C., 5% CO2.\n3. Harvest cells by trypsinization and seed in Corning 25850 polystyrene 96-well round bottom cell plates, 25,000 cells/well in 200 μl of growth media.\n4. Grow cells at least one day at 37° C., 5% CO2.\n5. Wash cells with D-PBS 1×.\n6. Add 200 μl/well of starvation media (DMEM, 2.0 mM 1-Glutamine, 0.1% FBS). Incubate overnight at 37° C., 5% CO2.\n7. Dilute Compounds 1:20 in polypropylene 96 well plates using starvation media. Dilute dimethylsulfoxide 1:20 for use in control wells.\n8. Remove starvation media from 96 well cell culture plates and add 162 μl of fresh starvation media to each well.\n9. Add 18 μl of 1:20 diluted compound dilution (from step 7) to each well plus the 1:20 dimethylsulfoxide dilution to the control wells (+/− VEGF), for a final dilution of 1:200 after cell stimulation. Final dimethylsulfoxide is 0.5%. Incubate the plate at 37° C., 5% CO2 for two hours.\n10. […]"}, "PDGF-R": {"test_system": "PDGF-R", "experiment": "PDGF-R Assay (cellular ELISA, U1242 cells)", "type": "cell-based", "design": "concentration or dose not given beside the values", "conditions": "protocol P.119", "description": "as §1\nAll cell culture media, glutamine, and fetal bovine serum can be purchased from Gibco Life Technologies (Grand Island, N.Y.) unless otherwise specified. All cells are grown in a humid atmosphere of 90-95% air and 5-10% CO2 at 37° C. All cell lines are routinely subcultured twice a week and are negative for mycoplasma as determined by the Mycotect method (Gibco).\nFor ELISA assays, cells (U1242, obtained from Joseph Schlessinger, NYU) are grown to 80-90% confluency in growth medium (MEM with 10% FBS, NEAA, 1 mM NaPyr and 2 mM GLN) and seeded in 96-well tissue culture plates in 0.5% serum at 25,000 to 30,000 cells per well. After overnight incubation in 0.5% serum-containing medium, cells are changed to serum-free medium and treated with test compound for 2 hr in a 5% CO2, 37° C. incubator. Cells are then stimulated with ligand for 5-10 minute followed by lysis with HNTG (20 mM Hepes, 150 mM NaCl, 10% glycerol, 5 mM EDTA, 5 mM Na3VO4, 0.2% Triton X-100, and 2 mM NaPyr). Cell lysates (0.5 mg/well in PBS) are transferred to ELISA plates previously coated with receptor-specific antibody and which had been blocked with 5% milk in TBST (50 mM Tris-HCl pH 7.2, 150 mM NaCl and 0.1% Triton X-100) at room temperature for 30 min. Lysates are incubated with shaking for 1 hour at room temperature. The plates are washed with TBST four times and then incubated with polyclonal anti-phosphotyrosine antibody at room temperature for 30 minutes. Excess anti-phosphotyrosine antibody is removed by rinsing the plate with TBST four times. Goat anti-rabbit IgG antibody is added to the ELISA plate for 30 min at room temperature followed by rinsing with TBST four more times. ABTS (100 mM citric acid, 250 mM Na2HPO4 and 0.5 mg/mL 2,2′-azino-bis (3-ethylbenzthiazoline-6-sulfonic acid)) plus H2O2 ([…] 30% H2O2 to 10 ml ABTS) is added to the ELISA plates to start color development. Absorbance at 410 nm with a reference wavelength of 630 nm is recorded about 15 to 30 min after ABTS addition."}}, "note": "Several values for one entry are separate records, joined by “and”; a condition that tells them apart may be missing. Equal entries are not always repeated.", "data": [{"smiles": "Cc1c(Br)cc(Br)c2c1C(=CC1COc3ccccc3O1)C(=O)N2", "note": "(racemic) [10739/H05]", "values": [{"measurement": "Flk Kinase % Inhibition (P.110)", "setting": "FLK-1 receptor", "value": "5.3% and 10.0%"}, {"measurement": "PDGF Kinase % Inhibition (P.119)", "setting": "PDGF-R", "value": "−5.0% and −6.4%"}]}]}
